Results published in patent publication US8785470B2, “Heterocyclic compounds and uses thereof” (Infinity Pharmaceuticals, Inc., priority 2011, dated 2014).

target: T1, PI3Kα (Homo sapiens, UniProt P42336); assay: PI3-Kinase HTRF assay, PI3Kα; assay type: biochemical; conditions: bins Greater than 10 μM and Greater than 1 μM to 10 μM; 10 μM ATP, PIP2 at 10 μM; read-out: IC50 P13Kα
T1 construct: purchased Millipore Corporation 14-602-K
Description: A PI3-Kinase HTRF® assay kit (cat No. 33-016) purchased from Millipore Corporation was used to screen compounds provided herein. This assay used specific, high affinity binding of the GRPI pleckstrin homology (PH) domain to PIP3, the product of a Class 1A or 1B PI3 Kinase acting on its physiological substrate PIP2. During the detection phase of the assay, a complex was generated between the GST-tagged PH domain and biotinylated short chain PIP3. The biotinylated PIP3 and the GST-tagged PH domain recruited fluorophores (Streptavidin-Allophycocyanin and Europium-labeled anti-GST respectively) to form the fluorescence resonance energy transfer (FRET) architecture, generating a stable time-resolved FRET signal. The FRET complex was disrupted in a competitive manner by non-biotinylated PIP3, a product formed in the PI3 Kinase assay.
PI3 Kinase α, β, γ and δ activity was assayed using the PI3 Kinase HTRF® assay kit (catalogue No. 33-016) purchased from Millipore Corporation. Purified recombinant PI3Kα (catalogue No. 14-602-K), PI3Kβ (catalogue No. 14-603-K), PI3Kγ (catalogue No. 14-558-K) and PI3Kδ (catalogue No. 14-604-K) were obtained from Millipore Corporation. Purified recombinant PI3K enzyme was used to catalyze the phosphorylation of phosphatidylinositol 4,5-bisphosphate (PIP2 at 10 μM) to phosphatidylinositol 3,4,5-trisphosphate (PIP3) in the presence of 10 μM ATP. The assay was carried out in 384-well format and detected using a Perkin Elmer EnVision Xcite Multilabel Reader. Emission ratios were converted into percent inhibitions and imported into GraphPad Prism software. The concentration necessary to achieve inhibition of enzyme activity by 50% (IC50) was calculated using concentrations ranging from 20 μM to 0.1 nM (12-point curve). IC50 values were determined using a nonlinear regression model available in GraphPad Prism 5. […]

T1 sequence (P42336 whole entry): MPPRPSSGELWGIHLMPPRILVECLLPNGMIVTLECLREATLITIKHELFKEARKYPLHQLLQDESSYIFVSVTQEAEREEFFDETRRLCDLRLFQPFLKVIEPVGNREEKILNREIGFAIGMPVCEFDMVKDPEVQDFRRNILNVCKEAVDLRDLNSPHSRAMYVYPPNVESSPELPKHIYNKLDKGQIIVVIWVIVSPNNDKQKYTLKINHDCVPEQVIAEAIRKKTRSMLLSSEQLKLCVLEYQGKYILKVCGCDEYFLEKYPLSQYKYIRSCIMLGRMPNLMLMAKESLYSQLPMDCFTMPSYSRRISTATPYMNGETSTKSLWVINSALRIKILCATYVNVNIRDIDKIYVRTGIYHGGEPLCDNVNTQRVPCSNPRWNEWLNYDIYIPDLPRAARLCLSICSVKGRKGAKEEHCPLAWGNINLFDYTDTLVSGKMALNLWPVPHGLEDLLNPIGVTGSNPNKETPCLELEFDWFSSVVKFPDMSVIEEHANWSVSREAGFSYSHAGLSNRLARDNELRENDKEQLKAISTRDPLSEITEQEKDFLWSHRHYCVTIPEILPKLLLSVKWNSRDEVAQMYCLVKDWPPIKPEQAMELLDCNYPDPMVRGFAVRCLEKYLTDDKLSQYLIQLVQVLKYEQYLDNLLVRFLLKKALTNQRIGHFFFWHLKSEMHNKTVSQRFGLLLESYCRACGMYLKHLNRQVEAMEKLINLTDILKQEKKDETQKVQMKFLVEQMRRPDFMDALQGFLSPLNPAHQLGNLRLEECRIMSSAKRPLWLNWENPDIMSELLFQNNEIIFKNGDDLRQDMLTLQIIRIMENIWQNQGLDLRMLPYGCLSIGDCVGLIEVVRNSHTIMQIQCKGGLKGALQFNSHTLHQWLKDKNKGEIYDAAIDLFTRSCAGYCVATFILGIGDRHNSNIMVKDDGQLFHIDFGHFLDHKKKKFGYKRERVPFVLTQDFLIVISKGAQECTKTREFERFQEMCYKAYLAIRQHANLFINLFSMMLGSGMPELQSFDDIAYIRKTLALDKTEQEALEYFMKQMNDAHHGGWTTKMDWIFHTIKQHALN
T1 sequence (P27986 whole entry partner): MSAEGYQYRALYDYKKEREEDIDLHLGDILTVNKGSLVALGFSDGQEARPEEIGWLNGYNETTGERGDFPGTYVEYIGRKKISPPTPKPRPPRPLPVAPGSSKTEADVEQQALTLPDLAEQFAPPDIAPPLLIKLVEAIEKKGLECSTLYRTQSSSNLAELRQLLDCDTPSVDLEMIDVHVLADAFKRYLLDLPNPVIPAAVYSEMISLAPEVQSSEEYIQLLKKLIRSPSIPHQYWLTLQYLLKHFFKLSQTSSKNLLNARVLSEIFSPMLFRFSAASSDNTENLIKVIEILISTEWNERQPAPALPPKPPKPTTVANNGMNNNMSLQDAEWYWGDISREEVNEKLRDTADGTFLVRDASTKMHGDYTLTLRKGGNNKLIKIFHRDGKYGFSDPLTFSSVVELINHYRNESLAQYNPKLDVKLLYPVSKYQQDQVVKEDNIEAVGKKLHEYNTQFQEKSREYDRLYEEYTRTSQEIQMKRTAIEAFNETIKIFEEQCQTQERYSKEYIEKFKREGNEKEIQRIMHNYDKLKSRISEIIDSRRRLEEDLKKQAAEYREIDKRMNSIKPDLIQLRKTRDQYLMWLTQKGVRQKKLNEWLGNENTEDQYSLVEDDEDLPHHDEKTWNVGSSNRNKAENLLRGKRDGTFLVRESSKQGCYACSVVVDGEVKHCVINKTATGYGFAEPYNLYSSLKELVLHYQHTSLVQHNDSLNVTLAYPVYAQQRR

Row | Structure (SMILES) | IC50 [nM]
1 | C[C@H](Nc1nc(N)ncc1C#N)c1cc2cccc(Cl)c2c(=O)n1-c1ccccc1 [Compound 8, (S)-2-amino-4-((1-(8-chloro-1-oxo-2-phenyl-1,2-dihydroisoquinolin-3-yl)ethyl)amino)pyrimidine-5-carbonitrile] | 1000 to 10000
2 | Cc1cccc2cc([C@H](C)Nc3nc(N)ncc3C#N)n(-c3cccc(F)c3)c(=O)c12 [Compound 15] | 1000 to 10000
3 | C[C@H](Nc1nc(N)ncc1C#N)c1cc2cccc(Cl)c2c(=O)n1-c1cccc(F)c1 [Compound 18] | 1000 to 10000
4 | Cc1ncc(-c2cccc3cc([C@H](C)Nc4nc(N)ncc4C#N)n(-c4cccc(F)c4)c(=O)c23)cn1 [Compound 20] | 1000 to 10000
5 | C[C@H](Nc1nc(N)ncc1C#N)c1cc2cccc(-c3cccc(F)c3)c2c(=O)n1-c1ccccc1 [Compound 33] | 1000 to 10000
6 | Cc1ccc(-c2cccc3cc([C@H](C)Nc4nc(N)ncc4C#N)n(-c4ccccc4)c(=O)c23)cn1 [Compound 41] | 1000 to 10000
7 | Cc1ncc(-c2cccc3cc([C@H](C)Nc4nc(N)ncc4C#N)n(-c4ccccc4)c(=O)c23)cn1 [Compound 55] | 1000 to 10000
8 | C[C@H](Nc1nc(N)ncc1C#N)c1cc2cccc(-c3ccnnc3)c2c(=O)n1-c1ccccc1 [Compound 57] | 1000 to 10000
9 | C[C@H](Nc1nc(N)ncc1C#N)c1nc2cccc(Cl)c2c(=O)n1-c1ccccc1 [Compound 59, (S)-2-amino-4-((1-(5-chloro-4-oxo-3-phenyl-3,4-dihydroquinazolin-2-yl)ethyl)amino)pyrimidine-5-carbonitrile] | 1000 to 10000
10 | COc1cncc(-c2cccc3nc([C@H](C)Nc4nc(N)ncc4C#N)n(-c4ccccc4)c(=O)c23)c1 [Compound 65] | 1000 to 10000
11 | C#Cc1cccc2cc([C@H](C)Nc3nc(N)ncc3C#N)n(-c3ccccc3)c(=O)c12 [Compound 72] | 1000 to 10000
12 | COc1cc(-c2cccc3cc([C@H](C)Nc4nc(N)ncc4-c4cccnc4)n(-c4ccccc4)c(=O)c23)ccn1 [Compound 133] | 1000 to 10000
13 | C[C@H](Nc1nc(N)ncc1C#N)c1cc2cccc(Cl)c2c(=O)n1-c1ccc(F)cc1F [Compound 255] | 1000 to 10000
14 | C[C@H](Nc1nc(N)ncc1C#N)c1cc2cccc(Cl)c2c(=O)n1-c1cc(F)ccc1F [Compound 264] | 1000 to 10000
15 | C[C@H](Nc1nc(N)ncc1C#N)c1cc2cccc(Cl)c2c(=O)n1-c1ccccc1F [Compound 267] | 1000 to 10000

test system: Balb/c splenic B cells; assay: B cell activation and proliferation assay; assay type: cell-based; conditions: Mus musculus, column bins 1 μM to 100 nM (given as 100-1000) and Less than 100 nM, read-out: B cell proliferation EC50
Method: The ability of one or more subject compounds to inhibit B cell activation and proliferation is determined according to standard procedures known in the art. For example, an in vitro cellular proliferation assay is established that measures the metabolic activity of live cells. The assay is performed in a 96 well microtiter plate using Alamar Blue reduction. Balb/c splenic B cells are purified over a Ficoll-Paque™ PLUS gradient followed by magnetic cell separation using a MACS B cell Isolation Kit (Miletenyi). Cells are plated in 90 μl at 50.000 cells/well in B Cell Media (RPMI+10% FBS+Penn/Strep+50 μME5 mM HEPES). A compound provided herein is diluted in B Cell Media and added in a 10 μl volume. Plates are incubated for 30 min at 37° C. and 5% CO2 (0.2% DMSO final concentration). A 50 μl B cell stimulation cocktail is then added containing either 10 μg/ml LPS or 5 μg/ml F(ab′)2 Donkey anti-mouse IgM plus 2 ng/ml recombinant mouse IL4 in B Cell Media. Plates are incubated for 72 hours at 37° C. and 5% CO2. A volume of 15 μL of Alamar Blue reagent is added to each well and plates are incubated for 5 hours at 37° C. and 5% CO2. Alamar Blue fluoresce is read at 560Ex/590Em, and IC50 or EC50 values are calculated using GraphPad Prism 5.

Row | Structure (SMILES) | EC50 [nM]
16 | C[C@H](Nc1nc(N)ncc1C#N)c1cc2cccc(Cl)c2c(=O)n1-c1ccccc1 [Compound 8, (S)-2-amino-4-((1-(8-chloro-1-oxo-2-phenyl-1,2-dihydroisoquinolin-3-yl)ethyl)amino)pyrimidine-5-carbonitrile] | < 100
17 | COc1cncc(-c2cccc3cc([C@H](C)Nc4nc(N)ncc4C#N)n(-c4ccccc4)c(=O)c23)c1 [Compound 9, (S)-2-amino-4-((1-(8-(5-methoxypyridin-3-yl)-1-oxo-2-phenyl-1,2-dihydroisoquinolin-3-yl)ethyl)amino)pyrimidine-5-carbonitrile] | < 100
18 | COc1ncc(-c2cccc3cc([C@H](C)Nc4nc(N)ncc4C(F)(F)F)n(-c4ccccc4)c(=O)c23)cn1 [Compound 12] | < 100
19 | Cc1cccc2cc([C@H](C)Nc3nc(N)ncc3C#N)n(-c3cccc(F)c3)c(=O)c12 [Compound 15] | < 100
20 | C[C@H](Nc1nc(N)ncc1C#N)c1cc2cccc(Cl)c2c(=O)n1-c1cccc(F)c1 [Compound 18] | < 100
21 | Cc1ncc(-c2cccc3cc([C@H](C)Nc4nc(N)ncc4C#N)n(-c4cccc(F)c4)c(=O)c23)cn1 [Compound 20] | < 100
22 | COc1ncc(-c2cccc3cc([C@H](C)Nc4nc(N)ncc4C#N)n(-c4cccc(F)c4)c(=O)c23)cn1 [Compound 22] | < 100
23 | C[C@H](Nc1nc(N)ncc1C#N)c1cc2cccc(-c3cnc4[nH]ccc4c3)c2c(=O)n1-c1cccc(F)c1 [Compound 25] | < 100
24 | COc1ncc(-c2cccc3cc([C@H](C)Nc4nc(N)ncc4C(F)(F)F)n(-c4cccc(F)c4)c(=O)c23)cn1 [Compound 31] | < 100
25 | Cc1ccc(-c2cccc3cc([C@H](C)Nc4nc(N)ncc4C#N)n(-c4ccccc4)c(=O)c23)cn1 [Compound 41] | < 100
26 | C[C@H](Nc1nc(N)ncc1C#N)c1cc2cccc(-c3cnc4[nH]ccc4c3)c2c(=O)n1-c1ccccc1 [Compound 47] | < 100
27 | C[C@H](Nc1nc(N)ncc1C#N)c1cc2cccc(-c3cnc4ccccc4c3)c2c(=O)n1-c1ccccc1 [Compound 50] | < 100
28 | Cc1ncc(-c2cccc3cc([C@H](C)Nc4nc(N)ncc4C#N)n(-c4ccccc4)c(=O)c23)cn1 [Compound 55] | < 100
29 | C[C@H](Nc1nc(N)ncc1C#N)c1cc2cccc(-c3ccnnc3)c2c(=O)n1-c1ccccc1 [Compound 57] | < 100
30 | C[C@H](Nc1nc(N)ncc1C#N)c1nc2cccc(Cl)c2c(=O)n1-c1ccccc1 [Compound 59, (S)-2-amino-4-((1-(5-chloro-4-oxo-3-phenyl-3,4-dihydroquinazolin-2-yl)ethyl)amino)pyrimidine-5-carbonitrile] | < 100
31 | Cc1ncc(-c2cccc3nc([C@H](C)Nc4nc(N)ncc4C#N)n(-c4ccccc4)c(=O)c23)cn1 [Compound 63, (S)-2-amino-4-((1-(5-(2-methylpyrimidin-5-yl)-4-oxo-3-phenyl-3,4-dihydroquinazolin-2-yl)ethyl)amino)pyrimidine-5-carbonitrile] | < 100
32 | C#Cc1cccc2cc([C@H](C)Nc3nc(N)ncc3C#N)n(-c3ccccc3)c(=O)c12 [Compound 72] | < 100
33 | Nc1nccc(Cl)n1 [Compound 79, 2-amino-4-chloro-pyrimidine] | < 100
34 | Cc1nc(N)nc(N[C@@H](C)c2cc3cccc(Cl)c3c(=O)n2-c2ccccc2)c1C#N [Compound 89, (S)-2-amino-4-(1-(8-chloro-1-oxo-2-phenyl-1,2-dihydroisoquinolin-3-yl)ethylamino)-6-methylpyrimidine-5-carbonitrile] | < 100

Row | Structure (SMILES) | EC50 [nM]
35 | Cc1cc(N[C@@H](C)c2cc3cccc(Cl)c3c(=O)n2-c2ccccc2)nc(N)n1 [Compound 92, (S)-3-(1-((2-amino-6-methylpyrimidin-4-yl)amino)ethyl)-8-chloro-2-phenylisoquinolin-1(2H)-one] | 100 to 1000
36 | C[C@H](Nc1nc(N)ncc1C#N)c1cc2cccc(-c3cncc(N(C)C)c3)c2c(=O)n1-c1ccccc1 [Compound 96] | < 100
37 | COc1cncc(-c2cccc3cc([C@H](C)Nc4nc(N)ncc4C#N)n(C4CC4)c(=O)c23)c1 [Compound 106] | < 100
38 | COc1cc(-c2cccc3cc([C@H](C)Nc4nc(N)ncc4C#N)n(C4CC4)c(=O)c23)ccn1 [Compound 107] | < 100
39 | COc1cc(-c2cccc3cc([C@H](C)Nc4nc(N)ncc4C(=O)N(C)C)n(-c4ccccc4)c(=O)c23)ccn1 [Compound 112] | < 100
40 | C[C@H](Nc1ncnc(N)c1[N+](=O)[O-])c1cc2cccc(Cl)c2c(=O)n1-c1ccccc1 [Compound 129] | < 100
41 | C[C@H](Nc1nc(N)ncc1C#N)c1cc2cccc(-c3ccnc(O)c3)c2c(=O)n1-c1ccccc1 [Compound 130] | < 100
42 | C[C@H](Nc1nc(N)ncc1C#N)c1cc2cccc(Oc3ccccc3)c2c(=O)n1-c1ccccc1 [Compound 151] | < 100
43 | COc1cc(-c2cccc3cc([C@H](C)Nc4nc(N)ncc4-c4ccc(O)c(F)c4)n(-c4ccccc4)c(=O)c23)ccn1 [Compound 159] | < 100
44 | COc1cc(-c2cccc3cc([C@H](C)Nc4nc(N)ncc4-c4cc(O)cc(F)c4)n(-c4ccccc4)c(=O)c23)ccn1 [Compound 161] | 100 to 1000
45 | COc1cc(-c2cccc3cc([C@H](C)Nc4nc(N)ncc4-c4ccc(F)c(O)c4)n(-c4ccccc4)c(=O)c23)ccn1 [Compound 163] | 100 to 1000
46 | C[C@H](Nc1nc(N)ncc1C#N)c1cc2cccc(C#CCCC(=O)N3CCOCC3)c2c(=O)n1-c1ccccc1 [Compound 193] | < 100
47 | C[C@H](Nc1nc(N)ncc1C#N)c1cc2cccc(Cl)c2c(=O)n1C1CCCC1 [Compound 297] | < 100
48 | C[C@H](Nc1nc(N)ncc1C#N)c1cc2cccc(Cl)c2c(=O)n1-c1cccnc1 [Compound 306] | < 100
49 | Cc1ncc(-c2cnc(N)nc2N[C@@H](C)c2cc3cccc(Cl)c3c(=O)n2-c2ccccc2)s1 [Compound 372] | < 100
50 | COc1cc(-c2cccc3cc([C@@H](C)Nc4nc(N)ncc4C#N)n(-c4ccccc4)c(=O)c23)ccn1 [Compound 380] | < 100
51 | C[C@H](Nc1cc(N)ncc1C(N)=O)c1cc2cccc(Cl)c2c(=O)n1-c1ccccc1 [Compound 431] | < 100
52 | COc1cc(-c2cccc3cc([C@H](C)Nc4nc(N)ncc4C(=O)N4CC(F)(F)C4)n(-c4ccccc4)c(=O)c23)ccn1 [Compound 432] | 100 to 1000

same assay, conditions: Mus musculus, read-out: B cell proliferation EC50

Row | Structure (SMILES) | EC50 [nM]
53 | C[C@H](Nc1nc(N)ncc1C(=O)N1CCC1)c1cc2cccc(-c3cnn(C)c3)c2c(=O)n1-c1ccccc1 [Compound 204] | 1000 to 10000
54 | COc1nc(-c2cnc(N)nc2N[C@@H](C)c2cc3cccc(Cl)c3c(=O)n2-c2ccccc2)cs1 [Compound 223] | < 100
